Results reported in publication PMC5844530, “Fosmetpantotenate (RE-024), a phosphopantothenate replacement therapy for pantothenate kinase-associated neurodegeneration: Mechanism of action and efficacy in nonclinical models” (PLoS ONE, 2018).
Where “and” joins values, the source holds several entries; their conditions need not be identical. Equal values may be shown once.

Key:
[1] = Pharmacokinetics in whole blood, cynomolgus monkeys; conditions: blood; for AUC: single PO fosmetpantotenate 300 mg/kg, mean (individual values), N = 2, analyte = label; for Fosmetpantotenate Mean Conc. / Fosmetpantotenate blood concentration, Cyno #1 / Fosmetpantotenate blood concentration, Cyno #2 / concentration at 0.083 h / concentration at 0.167 h / concentration at 0.333 h / concentration at 0.5 h / concentration at 1 h / concentration at 2 h / concentration at 4 h: fosmetpantotenate 300 mg/kg oral; for concentration at 0.083 h / concentration at 0.167 h / concentration at 0.333 h / concentration at 0.5 h / concentration at 1 h / concentration at 2 h / concentration at 4 h: male
[2] = Metabolic stability in rat liver microsomes; format: in vitro ADME; conditions: pooled liver microsomes
Description: (§1) Metabolic stability in blood and liver microsomes: Fosmetpantotenate or its individual diastereomers (5 μM, n = 2, 37°C) were incubated in mouse, rat, cynomolgus monkey, and human whole blood. Samples (50 μL) were taken at 0, 5, 15, 30, and 60 min. Incubations of fosmetpantotenate or its individual diastereomers (1 μM, n = 2, 37°C) in pooled liver microsomes (0.25 mg protein/mL in 0.1 M phosphate buffer pH 7.4) were initiated with the addition of nicotinamide adenine dinucleotide phosphate (NADPH; 1 mM). Aliquots (100 μL) were obtained at 0, 5, 10, 20, and 40 min and added to 150 μL of 0.1% formic acid in acetonitrile-containing carbamazepine (0.5 μM) as an analytical internal standard, centrifuged, and the supernatants analyzed by LC-MS/MS.
(§2) Bioanalysis for determinations of analyte stability: Samples were analyzed using a benchtop tandem quadrupole detector (TQD) mass spectrometer (Waters Ltd, Centennial Park, Hertfordshire). […] Suitable retention and peak shape with separation of the 2 diastereomers were obtained. The chromatography column was a Phenomenex-Kinetex XB C18 (2.10 x 50 mm; 2.6 μm), with a 0.7 mL/min flow rate and a 2 μL injection volume. […]
(§3) The percent of compound remaining was determined from the MRM area response in each sample relative to that in the T = 0 samples (normalized for internal standard). […]

[3] = Metabolic stability in mouse liver microsomes; format: in vitro ADME; conditions: pooled liver microsomes
Description: as §1, §2, §3

[4] = Pharmacokinetics in whole blood, CD-1 mice; conditions: blood
Description: The whole blood samples (0.5 mL) were collected into syringes that were prefilled with 2.5 mL of ice-cold 0.1% formic acid in acetonitrile. The volume ratio of the whole blood to 0.1% formic acid in acetonitrile was 1/5 (v/v). Samples were frozen (-70°C) until analyzed by LC-MS/MS.
Standard curves and quality control (QC) samples were prepared fresh on the day of analysis by serial dilution of the standard mixture in quenched whole blood (1 part of blood to 5 parts of 0.1% formic acid in acetonitrile) and centrifuged. […] The frozen study samples were thawed in an ice/water bath and centrifuged. Supernatant (50 μL) from standards, QC samples, and study samples was transferred to a 96-well plate and dried completely under nitrogen. The dried residues were reconstituted with 100 μL of 0.1% formic acid in water containing internal standard (5 ng/mL of ^15N/^13C3-RE-024-02) and analyzed by LC-MS/MS.
LC-MS/MS analysis for blood pharmacokinetic samples: Samples were analyzed using an Agilent 1100 binary pump (Agilent Technologies, Santa Clara, CA, USA), connected to an AB Sciex API 6500 mass spectrometer (SCIEX, Framingham, MA, USA). An electrospray ionization source was used, scanning in the positive mode. […] The chromatography column was a Varian Metasil AQ 120–5 C18 column, 5 μm, 50 x 2.00 mm (Part No. A0530050X020) at ambient temperature, with a 0.5 mL/min flow rate and a 20 μL injection volume. Mobile phase (A) consisted of 0.1% formic acid in water; while mobile phase (B) consisted of 0.1% formic acid in acetonitrile:water (9:1, v/v).
Quantitation of in vivo samples: Peak areas were integrated using Analyst software (AB Sciex, Concord, Ontario, Canada). […] Calibration standards (at a minimum 7 per curve) were fit by linear regression with (1/x^2) weighting. QC samples were used (triplicate) at 3 concentrations for all tandem mass spectrometry (MS/MS) runs.
Pharmacokinetic calculations: PK analysis was performed using Phoenix WinNonlin®, Build 6.3.0.395 (Certara, Princeton, NJ, USA) using a non-compartmental model (PO dose = model 200 for extravascular dosing). […] Post-dose concentrations below the limit of quantitation (BLQ) were omitted from calculation.

[5] = male cynomolgus monkeys, 0.033 hr
[6] = cynomolgus monkey, in vivo, 300 mg/kg, Fosmetpantotenate Mean Conc., male cynomolgus monkeys
[7] = cynomolgus monkey, in vivo, 300 mg/kg, Fosmetpantotenate blood concentration, Cyno #1, male cynomolgus monkeys
[8] = cynomolgus monkey, in vivo, 300 mg/kg, Fosmetpantotenate blood concentration, Cyno #2, male cynomolgus monkeys
[9] = pH 7.4, read-out: intrinsic clearance

Compound: COC(=O)CCNC(=O)[C@H](O)C(C)(C)COP(=O)(N[C@@H](C)C(=O)OC)Oc1ccccc1 (mixture of isomers) [Fosmetpantotenate]
- AUC [1]: 34,400 (13000, 55800) nM*h
- AUC ([1]; cynomolgus monkey, in vivo, po, 300 mg/kg, AUC): 34 µM·h
- Fosmetpantotenate Mean Conc. ([1]; male cynomolgus monkeys, 0 hr): BQL
- Fosmetpantotenate blood concentration, Cyno #1 ([1]; male cynomolgus monkeys, 0 hr): BQL
- Fosmetpantotenate blood concentration, Cyno #2 ([1]; male cynomolgus monkeys, 0 hr): BQL
- Fosmetpantotenate Mean Conc. [1, 5]: BQL
- Fosmetpantotenate blood concentration, Cyno #1 [1, 5]: BQL
- Fosmetpantotenate blood concentration, Cyno #2 [1, 5]: BQL
- Fosmetpantotenate Mean Conc. ([1]; male cynomolgus monkeys, 8 hr): BQL
- Fosmetpantotenate blood concentration, Cyno #1 ([1]; male cynomolgus monkeys, 8 hr): BQL
- Fosmetpantotenate blood concentration, Cyno #2 ([1]; male cynomolgus monkeys, 8 hr): BQL
- concentration at 0.083 h [1, 6]: 197 nM
- concentration at 0.167 h [1, 6]: 906 nM
- concentration at 0.333 h [1, 6]: 550 nM
- concentration at 0.5 h [1, 6]: 376 nM
- concentration at 1 h [1, 6]: 18700 nM
- concentration at 2 h [1, 6]: 13200 nM
- concentration at 4 h [1, 6]: 249 nM
- concentration at 0.083 h [1, 7]: 41.9 nM
- concentration at 0.167 h [1, 7]: 93.8 nM
- concentration at 0.333 h [1, 7]: 128 nM
- concentration at 0.5 h [1, 7]: 211 nM
- concentration at 1 h [1, 7]: 9950 nM
- concentration at 2 h [1, 7]: 3460 nM
- concentration at 4 h [1, 7]: 231 nM
- concentration at 0.083 h [1, 8]: 351 nM
- concentration at 0.167 h [1, 8]: 1720 nM
- concentration at 0.333 h [1, 8]: 972 nM
- concentration at 0.5 h [1, 8]: 541 nM
- concentration at 1 h [1, 8]: 27400 nM
- concentration at 2 h [1, 8]: 22900 nM
- concentration at 4 h [1, 8]: 267 nM
- half-life at 1 μM ([2]; pH 7.4, 1 μM, NADPH): 8 min
- microsomal CLint at 1 μM [2, 9]: 335 µL/min/mg
- half-life at 1 μM ([3]; pH 7.4, 1 μM, NADPH): 11 min
- microsomal CLint at 1 μM [3, 9]: 247 µL/min/mg
- Conc. ([4]; fosmetpantotenate 100 mg/kg PO, 0.033 hr, individual animals): 6.22 nM and BQL and 218.78 ^(a) nM and 9.40 nM
- Conc. ([4]; fosmetpantotenate 100 mg/kg PO, 0.083 hr, individual animals): BQL and 1.94 nM
- Conc. ([4]; fosmetpantotenate 100 mg/kg PO, 0.167 hr, individual animals): BQL and 2.30 nM
- Conc. ([4]; fosmetpantotenate 100 mg/kg PO, 0.333 hr, individual animals): 2.38 nM and 1.98 nM
- Conc. ([4]; fosmetpantotenate 100 mg/kg PO, 0.5 hr, individual animals): BQL and 1.43 nM
- Conc. ([4]; fosmetpantotenate 100 mg/kg PO, 1 hr, individual animals): BQL and 1.77 nM
- Conc. ([4]; fosmetpantotenate 100 mg/kg PO, 2 hr, individual animals): BQL
- Mean Conc. ([4]; fosmetpantotenate 100 mg/kg PO, 4 hr): BQL
- Conc. ([4]; fosmetpantotenate 100 mg/kg PO, 4 hr, individual animals): BQL
- Mean Conc. ([4]; fosmetpantotenate 100 mg/kg PO, 8 hr): BQL
- Conc. ([4]; fosmetpantotenate 100 mg/kg PO, 8 hr, individual animals): BQL
- Conc. ([4]; fosmetpantotenate 300 mg/kg PO, 0.033 hr, individual animals): 1.41 nM and 49.95 nM and 66.65 nM and 2.76 nM
- Conc. ([4]; fosmetpantotenate 300 mg/kg PO, 0.083 hr, individual animals): 5.50 nM and 4.59 nM and 18.72 nM and 28.96 nM
- Conc. ([4]; fosmetpantotenate 300 mg/kg PO, 0.167 hr, individual animals): 1.62 nM and 1.56 nM and 3.71 nM and BQL
- Conc. ([4]; fosmetpantotenate 300 mg/kg PO, 0.333 hr, individual animals): 1.22 nM and 1.07 nM and 1.14 nM
- Conc. ([4]; fosmetpantotenate 300 mg/kg PO, 0.5 hr, individual animals): 1.14 nM and 1.24 nM
- Conc. ([4]; fosmetpantotenate 300 mg/kg PO, 1 hr, individual animals): BQL
- Mean Conc. ([4]; fosmetpantotenate 300 mg/kg PO, 2 hr): BQL
- Conc. ([4]; fosmetpantotenate 300 mg/kg PO, 2 hr, individual animals): BQL
- Conc. ([4]; fosmetpantotenate 300 mg/kg PO, 4 hr, individual animals): BQL
- Mean Conc. ([4]; fosmetpantotenate 300 mg/kg PO, 8 hr): BQL
- Conc. ([4]; fosmetpantotenate 300 mg/kg PO, 8 hr, individual animals): BQL
- Fosmetpantotenate Conc. ([4]; male CD-1 mice, fosmetpantotenate 700 mg/kg oral, 0.033 hr, individual animals, BQL <1.02 nM): 61.71 nM and 230.17 nM and 51.34 nM and 195.45 nM
- Fosmetpantotenate Conc. ([4]; male CD-1 mice, fosmetpantotenate 700 mg/kg oral, 0.083 hr, individual animals, BQL <1.02 nM): 24.28 nM and 3756.01(a) nM and 8.28 nM and 16.06 nM
- Fosmetpantotenate Conc. ([4]; male CD-1 mice, fosmetpantotenate 700 mg/kg oral, 0.167 hr, individual animals, BQL <1.02 nM): 575.42 nM and 158.08 nM and 6.93 nM and 488.15 nM
- Fosmetpantotenate Conc. ([4]; male CD-1 mice, fosmetpantotenate 700 mg/kg oral, 0.333 hr, individual animals, BQL <1.02 nM): 22.76 nM
- Fosmetpantotenate Conc. ([4]; male CD-1 mice, fosmetpantotenate 700 mg/kg oral, 0.5 hr, individual animals, BQL <1.02 nM): 3.33 nM and 21.75 nM and 6.47 nM and 283.28 nM
- Fosmetpantotenate Conc. ([4]; male CD-1 mice, fosmetpantotenate 700 mg/kg oral, 1 hr, individual animals, BQL <1.02 nM): 128.99 nM and 6.41 nM and 3.33 nM and 67.53 nM
- Fosmetpantotenate Conc. ([4]; male CD-1 mice, fosmetpantotenate 700 mg/kg oral, 2 hr, individual animals, BQL <1.02 nM): 1.29 nM and 1.18 nM and 1.64 nM and 16.31 nM
- Fosmetpantotenate Conc. ([4]; male CD-1 mice, fosmetpantotenate 700 mg/kg oral, 4 hr, individual animals, BQL <1.02 nM): BQL
- Fosmetpantotenate Conc. ([4]; male CD-1 mice, fosmetpantotenate 700 mg/kg oral, 8 hr, individual animals, BQL <1.02 nM): BQL
- Fosmetpantotenate Mean Conc. ([4]; male CD-1 mice, fosmetpantotenate 700 mg/kg oral, 8 hr, mean, BQL <1.02 nM): BQL
- concentration at 0.083 h ([4]; male, CD-1, mouse, in vivo, 100 mg/kg, Conc., fosmetpantotenate 100 mg/kg PO, 0.083 hr, individual animals): 2 nM
- concentration at 0.167 h ([4]; male, CD-1, mouse, in vivo, 100 mg/kg, Conc., fosmetpantotenate 100 mg/kg PO, 0.167 hr, individual animals): 1.31 nM
- concentration at 0.333 h ([4]; male, CD-1, mouse, in vivo, 100 mg/kg, Conc., fosmetpantotenate 100 mg/kg PO, 0.333 hr, individual animals): 1.31 nM
- concentration at 0.5 h ([4]; male, CD-1, mouse, in vivo, 100 mg/kg, Conc., fosmetpantotenate 100 mg/kg PO, 0.5 hr, individual animals): 1.35 nM
- concentration at 1 h ([4]; male, CD-1, mouse, in vivo, 100 mg/kg, Conc., fosmetpantotenate 100 mg/kg PO, 1 hr, individual animals): 1.26 nM
- concentration at 2 h ([4]; male, CD-1, mouse, in vivo, 100 mg/kg, Conc., fosmetpantotenate 100 mg/kg PO, 2 hr, individual animals): 2.97 nM
- concentration at 0.033 h ([4]; male, CD-1, mouse, in vivo, 100 mg/kg, Mean Conc., fosmetpantotenate 100 mg/kg PO, 0.033 hr): 7.81 nM
- concentration at 0.083 h ([4]; male, CD-1, mouse, in vivo, 100 mg/kg, Mean Conc., fosmetpantotenate 100 mg/kg PO, 0.083 hr): 1.97 nM
- concentration at 0.167 h ([4]; male, CD-1, mouse, in vivo, 100 mg/kg, Mean Conc., fosmetpantotenate 100 mg/kg PO, 0.167 hr): 1.8 nM
- concentration at 0.333 h ([4]; male, CD-1, mouse, in vivo, 100 mg/kg, Mean Conc., fosmetpantotenate 100 mg/kg PO, 0.333 hr): 1.74 nM
- concentration at 0.5 h ([4]; male, CD-1, mouse, in vivo, 100 mg/kg, Mean Conc., fosmetpantotenate 100 mg/kg PO, 0.5 hr): 1.39 nM
- concentration at 1 h ([4]; male, CD-1, mouse, in vivo, 100 mg/kg, Mean Conc., fosmetpantotenate 100 mg/kg PO, 1 hr): 1.52 nM
- concentration at 2 h ([4]; male, CD-1, mouse, in vivo, 100 mg/kg, Mean Conc., fosmetpantotenate 100 mg/kg PO, 2 hr): 2.97 nM
